Measured values as given in patent US11786532B2, “2-pyridones and methods of use thereof” (ALIGOS THERAPEUTICS, INC., priority 2020, dated 2023).

Target: T1, human thyroid receptor beta ligand-binding domain (THR-beta) (Homo sapiens, UniProt P10828)
T1 sequence (P10828 217-461 limits assumed): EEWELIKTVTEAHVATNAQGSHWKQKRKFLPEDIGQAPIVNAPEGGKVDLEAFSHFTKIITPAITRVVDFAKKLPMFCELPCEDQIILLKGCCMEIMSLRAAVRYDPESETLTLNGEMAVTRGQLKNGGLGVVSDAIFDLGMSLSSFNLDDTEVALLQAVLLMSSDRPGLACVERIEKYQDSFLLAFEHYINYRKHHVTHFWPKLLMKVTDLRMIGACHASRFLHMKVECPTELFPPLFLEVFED
Experiment: THR Biochemical Assay (Assay 1): TR-FRET thyroid receptor beta coactivator assay
Conditions: TR-FRET SRC2-2 coactivator recruitment, GST-tagged THR-beta LBD 1 nM, 1 hr at rt; read-out: Assay 1 (EC50, THR-beta agonist activity)
Excerpt: THR Biochemical Assay (Assay 1)
The TR-FRET thyroid receptor beta coactivator assay is to be used. The assay uses a terbium-labeled anti-GST antibody, a glutathione-S-transferase (GST) tagged human thyroid receptor, beta or alpha, ligand-binding domain (LBD), and a fluorescein labeled SRC2-2 coactivator peptide. The antibody interacts with the LBD, where the agonist will also bind, resulting in increased affinity for the SRC2-2 coactivator peptide causing energy transfer of the acceptor fluorophore and a FRET emission shift from 495 to 520 nm. The energy transfer is detected as an increase in the fluorescence emission of the fluorescein acceptor, and a decrease in the fluorescence emission of the terbium donor. The assay is to be performed in a 384-well black plate in a final volume of 20 μL. Serial dilution of various test agonists will be performed in DMSO (1% final DMSO concentration) and added to the test plate. Thyroid receptor beta LBD will usually be added to the plate at a final concentration of 1 nM, followed by the mixture of the fluorescein labeled SRC2-2 coactivator peptide, and the terbium-labeled anti-GST antibody at final concentrations of 200 nM and 2 nM respectively. The assay will often be incubated for 1 hr at rt protected from light. The TR-FRET will then be measured on a Victor multilabel reader (Perkin Elmer) using an excitation wavelength of 340 nm with emission filters of 495 nm and 520 nm. The assay will be quantified by expressing a ratio (520:495) of the intensities, and the resulting activation curves; EC50 values are to be generated using a sigmoidal dose response (variable slope) equation in GraphPad™ Prism 8.0.

EC50: < 50 nM
Compound: CC(C)c1cc(Oc2c(Cl)cc(-n3nc(N)c(=O)[nH]c3=O)cc2Cl)c[nH]c1=O [Compound 1, 6-amino-2-(3,5-dichloro-4-((5-isopropyl-6-oxo-1,6-dihydropyridin-3-yl)oxy)phenyl)-1,2,4-triazine-3,5(2H,4H)-dione]
